From patent US11401271B2, “Fused heterocyclic compound, pyrazole-ring-containing fused heterocyclic compound, agricultural composition containing thereof, and method of using the composition” (SOUTH CHINA AGRICULTURAL UNIVERSITY, priority 2017, dated 2022)
Where two headings read alike, the source gives them in different places.

Columns and labels:
Format in all cases: in vivo
Plutella xylostella = experiment: whole plant or invertebrate; settings: Plutella xylostella, read-out: Plutella xylostella Mortality (%) 500 ppm
How it was run: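 Cabbage leaf discs dipped 5 s in compound at 500 ppm (0.05% Tween-80 aqueous), air-dried, fed to about 35 2nd-instar larvae at 28° C., triplicate. Dead larvae counted after 24 h; mortality (%) corrected against Tween-80 control.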

Spodoptera exigua = experiment: whole plant or invertebrate; settings: Spodoptera exigua, 24 h, read-out: Spodoptera exigua Mortality (%) 500 ppm
How it was run: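 Cabbage leaf discs dipped 5 s in 500 ppm compound (0.05% Tween-80 aqueous), air-dried, fed to about 35 2nd-instar larvae at 28° C, three replicates. Deaths counted at 24 h; mortality corrected against Tween-80 control.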

Aphis craccivora = experiment: whole plant or invertebrate; settings: Aphis craccivora, 24 h, read-out: Aphis craccivora Mortality (%) 500 ppm
How it was run: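 Wingless adults feeding on bean sprouts were dipped with the sprouts for 5 s in 500 ppm compound in aqueous 0.05% Tween-80, air-dried, then held at 23° C. Dead aphids counted after 24 h, triplicate, with 0.05% Tween-80 as control. Mortality (%) = (control live − treated live)/control live × 100.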

Solenopsis invicta = experiment: whole plant or invertebrate; settings: Solenopsis invicta, water test tube poison-feeding
How it was run: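 Fire ants fed compound by water test-tube poison-feeding at 100 ppm in aqueous 0.05% Tween-80/5% honey (from 10 g/L DMSO stock), kept at 25 °C. Live and dead ants counted at 24 and 72 h; mortality (%) calculated relative to live ants in the untreated control.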

Bombyx mori L. = experiment: Toxicity test on 2nd-instar larvae of Bombyx mori L., leaf immersion feeding method; settings: 1000 ppm, 24 hours
How it was run: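 Second-instar silkworm larvae (~35 per vessel, 3 replicates) fed mulberry leaves dipped 5 s in 1000 ppm compound (0.05% Tween-80; DMSO stock diluted), held at 25 °C. Deaths counted after 24 hours; mortality % corrected against Tween-80 control survivors.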

Apis cernan = experiment: Toxicity test on adult worker bees of Apis cernan, small beaker method; settings: 500 ppm, 48 hours
How it was run: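 Same-size adult Apis cernan workers, collected the test morning, exposed in groups of 15 to cotton soaked with 500 ppm test liquid (small beaker method). Kept sealed in a dark climate box; live and dead bees counted after 48 h.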

[1] = 24 h, read-out: Solenopsis invicta Mortality (%) 100 ppm 24 h, 100 ppm, 24 h
[2] = 72 h, read-out: Solenopsis invicta Mortality (%) 100 ppm 72 h, 100 ppm, 72 h

Structure (SMILES)	mortality at 500 ppm (Plutella xylostella) [%]	mortality at 500 ppm (Spodoptera exigua) [%]	mortality at 500 ppm (Aphis craccivora) [%]	mortality at 100 ppm (Solenopsis invicta; [1]) [%]	mortality at 100 ppm (Solenopsis invicta; [2]) [%]	Toxicity determination Bombyx mori L. Mortality (%) (Bombyx mori L.)	Toxicity determination Apis cernan Mortality (%) (Apis cernan)
N#Cc1nn2c(c1[S+]([O-])C(F)(F)F)NC(C(O)CO)c1cc(C(F)(F)F)cc(Cl)c1-2 (stereo not shown) [Compound C51]	87	85	79	19	86	9	5
Cc1cc(-c2c(C#N)nn3c2NC(C(O)CO)c2cc(C(F)(F)F)cc(Cl)c2-3)c(C)o1 (stereo not shown) [Compound C52]	90	91	100	22	90	10	7
N#Cc1nn2c(c1[S+]([O-])C(F)(F)F)NC(CC(F)(F)F)(C(O)CO)c1cc(C(F)(F)F)cc(Cl)c1-2 (stereo not shown) [Compound C56]	82	87	91	27	80	6	8
COC(=O)/C=C/C1(CC#N)Nc2c([S+]([O-])C(F)(F)F)c(C#N)nn2-c2c(Cl)cc(C(F)(F)F)cc21 (stereo not shown) [Compound C58]	100	100	100	29	98	4	4
C=CC1(C=C)Nc2c(Br)c(CC)nn2-c2c(Cl)cc(C(F)(F)F)cc21 [Compound C61]	88	100	90	28	100	9	10
C=CC1(C=C)Nc2c(-c3cc(C)sc3C)c(CC)nn2-c2c(Cl)cc(C(F)(F)F)cc21 [Compound C62]	80	85	97	27	100	10	11
CCc1nn2c(c1-c1cc(C)sc1C)NC(/C=C\C(=O)OC)(/C=C/C(=O)OC)c1cc(C(F)(F)F)cc(Cl)c1-2 (stereo not shown) [Compound C64]	92	97	100	17	90	7	9
